Earlier results as cited in patent US20240358692A1, “TREATMENT OF SCLERODERMA” (Aisa Pharma, Inc., priority 2023, published 2024).

Settings: oral dosing; cited from earlier work

Structure (SMILES): CCOC(=O)C1=C(COCCN)NC(C)=C(C(=O)OC)C1c1ccccc1Cl (stereo not shown) [amlodipine]
- time to achieve maximal plasma concentrations (Tmax): 10 h
